What was measured:
Staphylococcus aureus = experiment: MIC assay using Staphylococcus aureus in trypticase soy broth, growth scored by turbidity; type: cell-based; details: for growth (turbidity score): aerobic 37° C., three days; for minimum inhibitory concentration: S. aureus at pH 6.0
Protocol: (§1) Minimal inhibitory concentration (MIC) assays of several hop compounds were conducted using a Staphylococcus aureus species and vaginal isolates Lactobacillus vaginalias, Lactobacillus crispatus, Lactobacillus gasseri, and Lactobacillus jensenii as test microorganisms. Lactobacillus assays were conducted in Lactobacillus MRS broth (Difco) tubes. A 0.1 ml aliquot of a 1% (w/w) solution of each hop acid in alcohol was added to a tube of sterile MRS broth to give a final concentration of 100 ppm of the hop. This solution was serially diluted in tubes with sterile MRS broth using a two-fold dilution series. A second dilution series prepared as above, but using 0.1 ml alcohol without hop acid, was used as a positive control of bacterial growth. Each tube was inoculated with a fresh culture (10^4 cells) of a Lactobacillus species in MRS broth. The cultures were incubated anaerobically in a CO2 incubator at 28° C. for five days. Growth was evaluated by visually assessing and scoring development of turbidity in the tube of broth.
The MIC assays for Staphylococcus aureus were conducted in Difco trypticase soy broth (TSB) using the same serial dilution technique and the inoculum level as described above. The pH of the TSB was adjusted to pH7.0, pH 6.0, or pH5.0 using hydrochloric acid. The tubes were incubated aerobically at 37° C. for three days and growth was evaluated by visually assessing and scored the development of turbidity in the broth.

Lactobacillus species = experiment: MIC assay using Lactobacillus species (vaginal isolates) in MRS broth, growth scored by turbidity; type: cell-based; details: for growth (turbidity score): MRS at pH 6.3, anaerobic 28° C., five days; for concentration as high as which Lactobacillus exhibited strong growth: Lactobacillus species tested
Protocol: as §1

For tetrahydroiso alpha acids, the “growth (turbidity score)” value (Staphylococcus aureus; 0.2 ppm, TSB at pH 5.0) was “No growth”, the “growth (turbidity score)” value (Staphylococcus aureus; 0.2 ppm, TSB at pH 6.0) was “++ Growth” and the “growth (turbidity score)” value (Staphylococcus aureus; 0.2 ppm, TSB at pH 7.0) was “+++ Growth”. For the same substance, the “growth (turbidity score)” value (Staphylococcus aureus; 0.39 ppm, TSB at pH 5.0) was “No growth”, the “growth (turbidity score)” value (Staphylococcus aureus; 0.39 ppm, TSB at pH 6.0) was “+/− Growth” and the “growth (turbidity score)” value (Staphylococcus aureus; 0.39 ppm, TSB at pH 7.0) was “++ Growth”. The “growth (turbidity score)” value (Staphylococcus aureus; 0.78 ppm, TSB at pH 5.0) was “No growth”, the “growth (turbidity score)” value (Staphylococcus aureus; 0.78 ppm, TSB at pH 6.0) was “No growth” and the “growth (turbidity score)” value (Staphylococcus aureus; 0.78 ppm, TSB at pH 7.0) was “+ Growth”. The “growth (turbidity score)” value (Staphylococcus aureus; 1.56 ppm, TSB at pH 5.0) was “No growth”, the “growth (turbidity score)” value (Staphylococcus aureus; 1.56 ppm, TSB at pH 6.0) was “No growth” and the “growth (turbidity score)” value (Staphylococcus aureus; 1.56 ppm, TSB at pH 7.0) was “+/− Growth”. For the same substance, the “growth (turbidity score)” value (Staphylococcus aureus; 3.125 ppm, TSB at pH 5.0) was “No growth”, the “growth (turbidity score)” value (Staphylococcus aureus; 3.125 ppm, TSB at pH 6.0) was “No growth” and the “growth (turbidity score)” value (Staphylococcus aureus; 3.125 ppm, TSB at pH 7.0) was “No growth”. The “growth (turbidity score)” value (Staphylococcus aureus; 6.25 ppm, TSB at pH 5.0) was “No growth”, the “growth (turbidity score)” value (Staphylococcus aureus; 6.25 ppm, TSB at pH 6.0) was “No growth” and the “growth (turbidity score)” value (Staphylococcus aureus; 6.25 ppm, TSB at pH 7.0) was “No growth”. For the same substance, the “growth (turbidity score)” value (Staphylococcus aureus; 12.5 ppm, TSB at pH 5.0) was “No growth”, the “growth (turbidity score)” value (Staphylococcus aureus; 12.5 ppm, TSB at pH 6.0) was “No growth” and the “growth (turbidity score)” value (Staphylococcus aureus; 12.5 ppm, TSB at pH 7.0) was “No growth”. The “growth (turbidity score)” value (Staphylococcus aureus; 25 ppm, TSB at pH 5.0) was “No growth”, the “growth (turbidity score)” value (Staphylococcus aureus; 25 ppm, TSB at pH 6.0) was “No growth” and the “growth (turbidity score)” value (Staphylococcus aureus; 25 ppm, TSB at pH 7.0) was “No growth”. For the same substance, the “growth (turbidity score)” value (Staphylococcus aureus; 50 ppm, TSB at pH 5.0) was “No growth”, the “growth (turbidity score)” value (Staphylococcus aureus; 50 ppm, TSB at pH 6.0) was “No growth” and the “growth (turbidity score)” value (Staphylococcus aureus; 50 ppm, TSB at pH 7.0) was “No growth”. For the same substance, the “growth (turbidity score)” value (Staphylococcus aureus; 100 ppm, TSB at pH 5.0) was “No growth”, the “growth (turbidity score)” value (Staphylococcus aureus; 100 ppm, TSB at pH 6.0) was “No growth” and the “growth (turbidity score)” value (Staphylococcus aureus; 100 ppm, TSB at pH 7.0) was “No growth”. The “concentration as low as which S. aureus showed no to very weak growth” value (Staphylococcus aureus) was 1.56 ppm, the minimum inhibitory concentration (Staphylococcus aureus) was 0.78 ppm and the “growth (turbidity score)” value (Lactobacillus species; 0.2 ppm) was “+++ Growth”. The “growth (turbidity score)” value (Lactobacillus species; 0.39 ppm) was “+++ Growth”, the “growth (turbidity score)” value (Lactobacillus species; 0.78 ppm) was “+++ Growth” and the “growth (turbidity score)” value (Lactobacillus species; 1.56 ppm) was “+++ Growth”. For the same substance, the “growth (turbidity score)” value (Lactobacillus species; 3.125 ppm) was “+++ Growth”, the “growth (turbidity score)” value (Lactobacillus species; 6.25 ppm) was “+++ Growth” and the “growth (turbidity score)” value (Lactobacillus species; 12.5 ppm) was “++ Growth”. The “growth (turbidity score)” value (Lactobacillus species; 25 ppm) was “+/− Growth”, the “growth (turbidity score)” value (Lactobacillus species; 50 ppm) was “No growth” and the “growth (turbidity score)” value (Lactobacillus species; 100 ppm) was “No growth”. For the same substance, the “concentration as high as which Lactobacillus exhibited strong growth” value (Lactobacillus species) was 12.5 ppm.
In the case of hexahydro beta acids, the “growth (turbidity score)” value (Staphylococcus aureus; 0.2 ppm, TSB at pH 5.0) is reported as “No growth”, the “growth (turbidity score)” value (Staphylococcus aureus; 0.2 ppm, TSB at pH 6.0) is reported as “+ Growth” and the “growth (turbidity score)” value (Staphylococcus aureus; 0.2 ppm, TSB at pH 7.0) is reported as “+++ Growth”. For the same substance, the “growth (turbidity score)” value (Staphylococcus aureus; 0.39 ppm, TSB at pH 5.0) was “No growth”, the “growth (turbidity score)” value (Staphylococcus aureus; 0.39 ppm, TSB at pH 6.0) was “No growth” and the “growth (turbidity score)” value (Staphylococcus aureus; 0.39 ppm, TSB at pH 7.0) was “++ Growth”. For the same substance, the “growth (turbidity score)” value (Staphylococcus aureus; 0.78 ppm, TSB at pH 5.0) was “No growth”, the “growth (turbidity score)” value (Staphylococcus aureus; 0.78 ppm, TSB at pH 6.0) was “No growth” and the “growth (turbidity score)” value (Staphylococcus aureus; 0.78 ppm, TSB at pH 7.0) was “+ Growth”. For the same substance, the “growth (turbidity score)” value (Staphylococcus aureus; 1.56 ppm, TSB at pH 5.0) was “No growth”, the “growth (turbidity score)” value (Staphylococcus aureus; 1.56 ppm, TSB at pH 6.0) was “No growth” and the “growth (turbidity score)” value (Staphylococcus aureus; 1.56 ppm, TSB at pH 7.0) was “+/− Growth”. For the same substance, the “growth (turbidity score)” value (Staphylococcus aureus; 3.125 ppm, TSB at pH 5.0) was “No growth”, the “growth (turbidity score)” value (Staphylococcus aureus; 3.125 ppm, TSB at pH 6.0) was “No growth” and the “growth (turbidity score)” value (Staphylococcus aureus; 3.125 ppm, TSB at pH 7.0) was “No growth”. For the same substance, the “growth (turbidity score)” value (Staphylococcus aureus; 6.25 ppm, TSB at pH 5.0) was “No growth”, the “growth (turbidity score)” value (Staphylococcus aureus; 6.25 ppm, TSB at pH 6.0) was “No growth” and the “growth (turbidity score)” value (Staphylococcus aureus; 6.25 ppm, TSB at pH 7.0) was “No growth”. For the same substance, the “growth (turbidity score)” value (Staphylococcus aureus; 12.5 ppm, TSB at pH 5.0) was “No growth”, the “growth (turbidity score)” value (Staphylococcus aureus; 12.5 ppm, TSB at pH 6.0) was “No growth” and the “growth (turbidity score)” value (Staphylococcus aureus; 12.5 ppm, TSB at pH 7.0) was “No growth”. The “growth (turbidity score)” value (Staphylococcus aureus; 25 ppm, TSB at pH 5.0) was “No growth”, the “growth (turbidity score)” value (Staphylococcus aureus; 25 ppm, TSB at pH 6.0) was “No growth” and the “growth (turbidity score)” value (Staphylococcus aureus; 25 ppm, TSB at pH 7.0) was “No growth”. The “growth (turbidity score)” value (Staphylococcus aureus; 50 ppm, TSB at pH 5.0) was “No growth”, the “growth (turbidity score)” value (Staphylococcus aureus; 50 ppm, TSB at pH 6.0) was “No growth” and the “growth (turbidity score)” value (Staphylococcus aureus; 50 ppm, TSB at pH 7.0) was “No growth”. The “growth (turbidity score)” value (Staphylococcus aureus; 100 ppm, TSB at pH 5.0) was “No growth”, the “growth (turbidity score)” value (Staphylococcus aureus; 100 ppm, TSB at pH 6.0) was “No growth” and the “growth (turbidity score)” value (Staphylococcus aureus; 100 ppm, TSB at pH 7.0) was “No growth”. The “concentration as low as which S. aureus showed no to very weak growth” value (Staphylococcus aureus) was 1.56 ppm, the minimum inhibitory concentration (Staphylococcus aureus) was 0.78 ppm and the “growth (turbidity score)” value (Lactobacillus species; 0.2 ppm) was “+++ Growth”. The “growth (turbidity score)” value (Lactobacillus species; 0.39 ppm) was “+++ Growth”, the “growth (turbidity score)” value (Lactobacillus species; 0.78 ppm) was “+++ Growth” and the “growth (turbidity score)” value (Lactobacillus species; 1.56 ppm) was “+++ Growth”. For the same substance, the “growth (turbidity score)” value (Lactobacillus species; 3.125 ppm) was “+++ Growth”, the “growth (turbidity score)” value (Lactobacillus species; 6.25 ppm) was “+++ Growth” and the “growth (turbidity score)” value (Lactobacillus species; 12.5 ppm) was “+++ Growth”. The “growth (turbidity score)” value (Lactobacillus species; 25 ppm) was “+/− Growth”, the “growth (turbidity score)” value (Lactobacillus species; 50 ppm) was “No growth” and the “growth (turbidity score)” value (Lactobacillus species; 100 ppm) was “No growth”. For the same substance, the “concentration as high as which Lactobacillus exhibited strong growth” value (Lactobacillus species) was 12.5 ppm.

From patent publication US7005453B1, “Use of hop acids to inhibit growth of Staphylococcus aureus and prevent toxic shock syndrome” (Miller Brewing Company, priority 1999, dated 2006)
